Biological target: T1, α-N-acetylgalactosaminidase (from chicken liver) (Gallus gallus, UniProt Q90744)
T1 construct: originated from chicken liver (a product of Sigma Company); purchased Sigma Company; host or cells: chicken liver
T1 sequence (Q90744 1-405): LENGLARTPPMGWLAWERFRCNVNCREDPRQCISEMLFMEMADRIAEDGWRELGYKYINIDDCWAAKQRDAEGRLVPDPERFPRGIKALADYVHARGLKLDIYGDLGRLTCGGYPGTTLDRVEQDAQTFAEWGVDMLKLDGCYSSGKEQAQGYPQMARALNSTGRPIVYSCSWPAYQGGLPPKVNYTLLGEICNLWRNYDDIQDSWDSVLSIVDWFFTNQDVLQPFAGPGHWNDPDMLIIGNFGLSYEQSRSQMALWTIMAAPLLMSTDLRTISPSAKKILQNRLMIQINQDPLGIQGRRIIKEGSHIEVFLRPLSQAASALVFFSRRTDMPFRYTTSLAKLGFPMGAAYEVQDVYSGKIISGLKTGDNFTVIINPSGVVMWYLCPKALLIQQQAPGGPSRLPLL
Experiment: α-N-acetylgalactosaminidase inhibition (Test Example 1)
Type: biochemical
Details: for IC50: α-N-acetylgalactosaminidase from chicken liver, substrate p-nitrophenyl-N-acetyl-α-D-galactosaminide, pH 4.0, 37° C., 30 minutes, read-out: 50% inhibiory concentration (IC50) Enzyme A (converted)
Experimental: This Test Example is a test example for determining the N-acetylgalactosaminidase-inhibitory activity of the compound of the formula (I), (V) or (X) according to this invention.
Assay of the N-acetylgalactosaminidase-inhibitory activity was conducted according to a modification of the method described in the “Journal of Biological Chemistry”, 252, pp.5194-5200(1977).
Thus, 0.5 mL of 0.025M citrate-phosphate buffer (pH 4.0), 0.1 mL of the same buffer containing 10 mM p-nitro-phenyl-N-acetyl-α-D-galactosaminide dissolved therein, and 0.1 mL of either water or an aqueous solution containing as the test compound any one of the compounds of the formulae (I), (V) and (X) according to this invention were mixed with each other and pre-incubated in a 96-wells titer plate at 37° C. for 10 minutes. After the completion of the pre-incubation, to the pre-incubated mixture was added 0.01 mL of 0.025 M citrate-phosphate buffer containing α-N-acetyl-galactosaminidase originated from chicken liver (a product of Sigma Company) which was dissolved in said buffer as a glycosidase to be tested. Thereafter, the enzymatic reaction was conducted at 37° C. for 30 minutes.
After the enzymatic reaction, to the reaction solution was added 1.0 mL of 0.3M glycine—sodium hydroxide buffer (pH 10.5), in order to terminate the enzymatic reaction. Thereafter, the absorbance [designated as value (a)] of light at 405 nm of the resulting reaction solution was measured. Concurrently, measurement was made of the absorbance [designated as value (b)] at 405 nm of the reaction solution as obtained in the control test where the enzymatic reaction was conducted without addition of the test compound. Further, measurements were made of the absorbance [designated as values (a′)] and the absorbance [[designated as values (b′)] at 405 nm of the solutions as obtained in the blank test and the control test, respectively, where the enzymatic reaction was not conducted in the assay test. The rate of inhibition to […] was calculated by the equation: [1-(a-a′)/(b-b′)]×100.
The test results obtained are summarized as IC50 value in Table 1 below.

SMILES | inhibition of N-acetyl-galactosaminidase, in words (summary of Table 1) | IC50
O=C(N[C@H]1NC[C@H](CO)[C@H](O)[C@@H]1O)C(F)(F)F [Formula (I), 6-deacetamido-3-decarboxy-3-hydroxymethyl-6-trifluoroacetamido-siastain B] | inhibit strongly | 2.52 µM
CC(=O)NC1NCC(CO)C(O)C1O (stereo not drawn) [Formula (V), 3-decarboxy-4-epi-3-hydroxymethyl-siastain B] | – | > 490 µM
O=C(N[C@H]1NC[C@H](CO)[C@@H](O)[C@@H]1O)C(F)(F)F [Formula (X), 6-deacetamido-3-decarboxy-4-epi-3-hydroxymethyl-6-trifluoroacetamido-siastain B] | – | > 387 µM

Reference: US6852735B1, “Siastatin B derivatives having a glycosidase inhibitory activity and processes for producing the same” (Zaidan Hojin Biseibutsu Kagaku Kenkyu Kai, priority 1998, dated 2005)
